Results as given in patent US11357778B2, “Antagonist of the fibroblast growth factor receptor 3 (FGFR3) for use in the treatment or the prevention of skeletal disorders linked with abnormal activation of FGFR3” (INSTITUT NATIONAL DE LA SANTE ET DE LE RECHERCHE MEDICALE …, priority 2011, dated 2022).

What was measured:
[1] = system: FGFR3^K650M transfected NIH3T3 cells; assay: [3H]-thymidine incorporation in NIH3T3 cells expressing FGFR3^K650M; assay type: cell-based, mouse; conditions: A31 2 mM
Description: NIH-3T3 clones stably expressing FGFR3^+/+ (WT) and FGFR3^Y373C, FGFR3K650M (human constructs) were used. The stable clones were selected with G418. NIH-3T3 clones were incubated for 8 h in 10% newborn calf serum DMEM supplemented or not with A31 (2 mM). [3H] thymidine was added at a concentration of […] and incubated for 16 hours. The cells were harvested on glass fiber filter paper and assayed for radioactivity by liquid scintillation counting. The inventors used Top Count Microplates scintillation counter (Perkin Elmer).
To determine whether A31 modulates the mitogenic activity of activated FGFR3, the inventors measured [3H]-thymidine incorporation in FGFR3^Y373C and FGFR3^K650M transfected NIH3T3 cells. The mitogenic activity was increased in cells expressing FGFR3 mutations compared to WT (FGFR3^Y373C, 9927±2921 cpm; FGFR3^K650M, 15048±5251 cpm; WT, 7499±1667 cpm; p<10^−5 versus WT).

[2] = system: Fgfr3; assay: Fgfr3 protein expression (immunohistochemistry of femurs, Western blot of costal primary chondrocytes); assay type: cell-based, mouse; conditions: A31; data not shown
Description: (§1) Six sets of ex vivo experiments were performed. Femur embryos at day E16.5 from WT (n=6) and Fgfr3^Y367C/+ (n=6) mice were used and incubated for 5 days in DMEM medium with antibiotics and 0.2% BSA (Sigma) supplemented with A31 or PD173074 (as control) at a concentration of 2 mM. Right femur was cultured in supplemented medium and compared with the left one cultured in control medium. Rib cage from E16.5 WT and Fgfr3^Y367C/+ mice embryos were isolated and stripped of all soft tissues. Primary chondrocytes were obtained from rib cages. The ribs were incubated in a pronase solution (Roche; 2 mg/ml) followed by a digestion in Collagenase A (Roche; 3 mg/ml) at 37° C. […] To establish the effect of the inhibitors, the right femur was cultured in supplemented medium and compared with the left one cultured in control medium The bone length was measured at the beginning (before treatment) and at the end of time course. […] The genotype of WT, Fgfr3^Y367C/+ and Fgfr3^−/− mice were determined by PCR of tail DNA as previously described (Pannier et al., Biochim Biophys Acta, 1792: 140-147, 2009). […]
(§2) Immunoprecipitation were performed by incubating […] rabbit anti-FGFR3 (Sigma)/[…] protein with protein A-agarose (Roche). […] Bound proteins were detected by chemiluminescence (ECL, Amersham). The blots were rehybrididized with an antipan-actin antibody for quantification (Millipore). […]

[3] = system: cyclin D1; assay: Cyclin D1 immunoblot in costal primary chondrocytes from E16.5 ribs; assay type: cell-based, mouse; conditions: A31-treated murine chondrocytes vs untreated
Description: as §1, §2

[4] = biological target: FGFR3 (Homo sapiens, UniProt P22607); conditions: read-out: IC50 for inhibition of autophosphorylation of FGFR3; cited from earlier work
Chain of FGFR3 (P22607 23-806): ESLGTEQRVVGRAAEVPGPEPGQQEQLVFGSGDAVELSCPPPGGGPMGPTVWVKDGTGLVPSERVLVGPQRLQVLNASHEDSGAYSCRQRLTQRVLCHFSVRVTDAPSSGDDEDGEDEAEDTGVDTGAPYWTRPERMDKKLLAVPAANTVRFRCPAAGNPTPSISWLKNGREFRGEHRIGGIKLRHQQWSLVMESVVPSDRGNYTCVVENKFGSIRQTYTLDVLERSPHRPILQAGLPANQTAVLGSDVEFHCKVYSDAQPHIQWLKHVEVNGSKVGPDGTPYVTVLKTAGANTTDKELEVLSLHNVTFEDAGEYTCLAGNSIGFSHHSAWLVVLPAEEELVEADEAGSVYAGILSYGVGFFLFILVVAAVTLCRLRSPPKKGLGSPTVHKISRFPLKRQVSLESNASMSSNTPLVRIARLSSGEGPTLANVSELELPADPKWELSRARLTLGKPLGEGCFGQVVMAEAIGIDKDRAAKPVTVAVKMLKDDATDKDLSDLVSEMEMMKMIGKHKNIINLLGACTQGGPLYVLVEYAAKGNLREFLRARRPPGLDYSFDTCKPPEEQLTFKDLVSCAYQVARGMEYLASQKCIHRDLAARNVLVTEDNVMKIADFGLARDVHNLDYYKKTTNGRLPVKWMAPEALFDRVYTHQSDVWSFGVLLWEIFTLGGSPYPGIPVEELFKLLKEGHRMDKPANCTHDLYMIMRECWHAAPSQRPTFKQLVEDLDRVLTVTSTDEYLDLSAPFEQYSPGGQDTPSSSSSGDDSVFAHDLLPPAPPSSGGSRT

Structure (SMILES): COc1cc(OC)cc(-c2cc3cnc(NCc4cn(CC5CCCN(C)C5)nn4)nc3nc2NC(=O)NC(C)(C)C)c1 (stereo not shown) [Compound A31]
- [3H]-thymidine incorporation (DNA synthesis) [1]: 6281±2699 cpm
- Fgfr3 expression in mutant femurs (immunohistochemical staining) [2]: large decrease of Fgfr3 expression
- cyclin D1 level (Western blot) [3]: reduced level of cyclin D1
- IC50 [4]: ~190 nM
